Data: patent US9833497B2, “Human originated EGF domain proteins and use of the same” (CHENGDU SOURCEBIO LIMITED-LIABILITY COMPANY, priority 2013, dated 2017)

What was measured:
Assay type in all cases: cell-based
Proteus mirabilis = assay: MIC against Gram-negative bacteria: Proteus mirabilis; conditions: for MIC (μg/mL) P. mirabilis / MIC against P. mirabilis: 5×10^5 CFU/mL
In short: (§1)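 Inocula prepared by growing LB cultures at 37° C to 0.5 McFarland, centrifuging at 4000×g, and resuspending in fresh medium. Final density 5×10^5 CFU/mL per well with two-fold dilutions of purified EGF domain protein; shaking incubation at 37° C.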

Pseudomonas aeruginosa = assay: MIC against Gram-negative bacteria: Pseudomonas aeruginosa; conditions: for MIC (μg/mL) P. aeruginosa / MIC against P. aeruginosa: 5×10^5 CFU/mL
In short: as §1

Klebsiella pneumonia = assay: MIC against Gram-negative bacteria: Klebsiella pneumonia; conditions: for MIC (μg/mL) K. pneumonia / MIC against K. pneumonia: 5×10^5 CFU/mL
In short: as §1

Proteus vulgaris = assay: MIC against Gram-negative bacteria: Proteus vulgaris; conditions: for MIC (μg/mL) P. vulgaris / MIC against P. vulgaris: 5×10^5 CFU/mL
In short: as §1

Citrobacter diversus = assay: MIC against Gram-negative bacteria: Citrobacter diversus; conditions: for MIC (μg/mL) C. diversus / MIC against C. diversus: 5×10^5 CFU/mL
In short: as §1

Moraxella catarrhalis = assay: MIC against Gram-negative bacteria: Moraxella catarrhalis; conditions: for MIC (μg/mL) M. catarrhalis / MIC against M. catarrhalis: 5×10^5 CFU/mL
In short: as §1

Enterobacter cloacae = assay: MIC against Gram-negative bacteria: Enterobacter cloacae; conditions: for MIC (μg/mL) E. cloacae / MIC against E. cloacae: 5×10^5 CFU/mL
In short: as §1

E. coli DH5α = assay: Antibacterial activity: MIC and growth curve against E. coli DH5α in 96-well plate; conditions: minimal inhibitory concentration against E. coli DH5α; 96-well plate, 5×10^5 CFU/mL, 37° C., judged after 8 h
In short: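 Log-phase bacteria (OD600 ~0.5) resuspended in LB at 5×10^5 CFU/mL, exposed to recombinant protein at 50, 25, 12.5 μg/mL final in triplicate, 37 °C shaking at 175 rpm. OD600 read every 30 min; MIC is lowest concentration showing no growth.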

Serratia marcescens = assay: MIC against Gram-negative bacteria: Serratia marcescens; conditions: for MIC (μg/mL) S. marcescens / MIC against S. marcescens: 5×10^5 CFU/mL
In short: as §1

Aeromonas hydrophila = assay: MIC against Gram-negative bacteria: Aeromonas hydrophila; conditions: for MIC (μg/mL) A. hydrophila / MIC against A. hydrophila: 5×10^5 CFU/mL
In short: as §1

E. coli BL21 = assay: MIC against Gram-negative bacteria: E. coli BL21; conditions: for MIC (μg/mL) E. coli BL21 / MIC against E. coli BL21: 5×10^5 CFU/mL
In short: as §1

[1] = P. mirabilis, 10 h cultivation at 37° C.
[2] = P. aeruginosa, 10 h cultivation at 37° C.
[3] = K. pneumonia, 10 h cultivation at 37° C.
[4] = P. vulgaris, 10 h cultivation at 37° C.
[5] = C. diversus, 10 h cultivation at 37° C.
[6] = M. catarrhalis, 10 h cultivation at 37° C.
[7] = E. cloacae, 10 h cultivation at 37° C.
[8] = S. marcescens, 10 h cultivation at 37° C.
[9] = A. hydrophila, 10 h cultivation at 37° C.
[10] = E. coli BL21, 10 h cultivation at 37° C.
[11] = Proteus mirabilis, 96-well plate, 37° C., 10 h
[12] = Pseudomonas aeruginosa, 96-well plate, 37° C., 10 h
[13] = Klebsiella pneumonia, 96-well plate, 37° C., 10 h
[14] = Proteus vulgaris, 96-well plate, 37° C., 10 h
[15] = Citrobacter diversus, 96-well plate, 37° C., 10 h
[16] = Moraxella catarrhalis, 96-well plate, 37° C., 10 h
[17] = Enterobacter cloacae, 96-well plate, 37° C., 10 h
[18] = Serratia marcescens, 96-well plate, 37° C., 10 h
[19] = Aeromonas hydrophila, 96-well plate, 37° C., 10 h
[20] = E. coli BL21, 96-well plate, 37° C., 10 h

Which “MIC (μg/mL) P. mirabilis” value (Proteus mirabilis; [1]) does the source give for “PRT871 (CYCNPLGSIHDRCNGSGFCECKTGTTGPKCDECLPGNSWHYGCQPNVCDN; listed as Homo sapiens)” here?
Its value is 12.5 µg/mL.

What about the “MIC (μg/mL) P. aeruginosa” value (Pseudomonas aeruginosa; [2]) of the same substance?
The value was 50 µg/mL.

What about the “MIC (μg/mL) K. pneumonia” value (Klebsiella pneumonia; [3]) of the same substance?
The value was 12.5 µg/mL.

What about the “MIC (μg/mL) P. vulgaris” value (Proteus vulgaris; [4]) of the same substance?
Its value is 50 µg/mL.

And the “MIC (μg/mL) C. diversus” value (Citrobacter diversus; [5])?
Its value is 12.5 µg/mL.

And the “MIC (μg/mL) M. catarrhalis” value (Moraxella catarrhalis; [6])?
Its value is 25 µg/mL.

What about the “MIC (μg/mL) E. cloacae” value (Enterobacter cloacae; [7]) of the same substance?
The value was 12.5 µg/mL.

What about the MIC (E. coli DH5α) of the same substance?
Its MIC is 12.5 µg/mL.

What about the “MIC (μg/mL) S. marcescens” value (Serratia marcescens; [8]) of the same substance?
The value was 12.5 µg/mL.

And the “MIC (μg/mL) A. hydrophila” value (Aeromonas hydrophila; [9])?
The value was 12.5 µg/mL.

What about the “MIC (μg/mL) E. coli BL21” value (E. coli BL21; [10]) of the same substance?
The value was 25 µg/mL.

Which results are given for “PRT990 (LDDACVSNPCHEDAICDTNPVNGRAICTCPPGFTGGACD; listed as Homo sapiens)”?
MIC (Proteus mirabilis; [1]): 25 µg/mL; MIC (Pseudomonas aeruginosa; [2]): 12.5 µg/mL; MIC (Klebsiella pneumonia; [3]): 12.5 µg/mL; MIC (Proteus vulgaris; [4]): 12.5 µg/mL; MIC (Citrobacter diversus; [5]): 25 µg/mL; MIC (Moraxella catarrhalis; [6]): 50 µg/mL; MIC (Enterobacter cloacae; [7]): 50 µg/mL; MIC (E. coli DH5α): 12.5 µg/mL; MIC (Serratia marcescens; [8]): 25 µg/mL; MIC (Aeromonas hydrophila; [9]): 12.5 µg/mL; MIC (E. coli BL21; [10]): 25 µg/mL

Which “MIC against P. mirabilis” value (Proteus mirabilis; 96-well plate, 37° C., 10 h) does the source give for “PRT485 (QADPCKFLACGEFAQCVKNERTEEAECRCKPGYDSQGSL; listed as Homo sapiens)” here?
Its value is 12.5 µg/mL.

What about the “MIC against P. aeruginosa” value (Pseudomonas aeruginosa; 96-well plate, 37° C., 10 h) of the same substance?
The value was 50 µg/mL.

And the “MIC against K. pneumonia” value (Klebsiella pneumonia; 96-well plate, 37° C., 10 h)?
Its value is 25 µg/mL.

And the “MIC against P. vulgaris” value (Proteus vulgaris; 96-well plate, 37° C., 10 h)?
Its value is 25 µg/mL.

And the “MIC against C. diversus” value (Citrobacter diversus; 96-well plate, 37° C., 10 h)?
The value was 50 µg/mL.

And the “MIC against M. catarrhalis” value (Moraxella catarrhalis; 96-well plate, 37° C., 10 h)?
The value was 25 µg/mL.

What about the “MIC against E. cloacae” value (Enterobacter cloacae; 96-well plate, 37° C., 10 h) of the same substance?
The value was 12.5 µg/mL.

And the MIC (E. coli DH5α)?
The MIC was 50 µg/mL.

And the “MIC against S. marcescens” value (Serratia marcescens; 96-well plate, 37° C., 10 h)?
Its value is 50 µg/mL.

What about the “MIC against A. hydrophila” value (Aeromonas hydrophila; 96-well plate, 37° C., 10 h) of the same substance?
Its value is 25 µg/mL.

And the “MIC against E. coli BL21” value (E. coli BL21; 96-well plate, 37° C., 10 h)?
Its value is 12.5 µg/mL.

With “PRT1361 (SELICPNDCFDRGRCINGTCYCEEGFTGEDCG; listed as Homo sapiens)” as the substance, how does the “MIC against P. mirabilis” value (Proteus mirabilis; Proteus mirabilis, 10 h cultivation at 37° C.) read?
The value was 12.5 µg/mL.

And the “MIC against P. aeruginosa” value (Pseudomonas aeruginosa; Pseudomonas aeruginosa, 10 h cultivation at 37° C.)?
Its value is 25 µg/mL.

And the “MIC against K. pneumonia” value (Klebsiella pneumonia; Klebsiella pneumonia, 10 h cultivation at 37° C.)?
Its value is 50 µg/mL.

What about the “MIC against P. vulgaris” value (Proteus vulgaris; Proteus vulgaris, 10 h cultivation at 37° C.) of the same substance?
The value was 25 µg/mL.

And the “MIC against C. diversus” value (Citrobacter diversus; Citrobacter diversus, 10 h cultivation at 37° C.)?
Its value is 50 µg/mL.

And the “MIC against M. catarrhalis” value (Moraxella catarrhalis; Moraxella catarrhalis, 10 h cultivation at 37° C.)?
Its value is 25 µg/mL.

What about the “MIC against E. cloacae” value (Enterobacter cloacae; Enterobacter cloacae, 10 h cultivation at 37° C.) of the same substance?
The value was 12.5 µg/mL.

And the MIC (E. coli DH5α)?
The MIC was 25 µg/mL.

And the “MIC against S. marcescens” value (Serratia marcescens; Serratia marcescens, 10 h cultivation at 37° C.)?
The value was 50 µg/mL.

What about the “MIC against A. hydrophila” value (Aeromonas hydrophila; Aeromonas hydrophila, 10 h cultivation at 37° C.) of the same substance?
The value was 25 µg/mL.

And the “MIC against E. coli BL21” value (E. coli BL21; [10])?
The value was 12.5 µg/mL.

Which results are given for “PRT1223 (LEGACTRSPCQHGGTCMDYWSWQQCHCKEGLTGKYCE; listed as Homo sapiens)”?
MIC against P. mirabilis (Proteus mirabilis; [11]): 12.5 µg/mL; MIC against P. aeruginosa (Pseudomonas aeruginosa; [12]): 12.5 µg/mL; MIC against K. pneumonia (Klebsiella pneumonia; [13]): 50 µg/mL; MIC against P. vulgaris (Proteus vulgaris; [14]): 50 µg/mL; MIC against C. diversus (Citrobacter diversus; [15]): 25 µg/mL; MIC against M. catarrhalis (Moraxella catarrhalis; [16]): 50 µg/mL; MIC against E. cloacae (Enterobacter cloacae; [17]): 25 µg/mL; MIC (E. coli DH5α): 50 µg/mL; MIC against S. marcescens (Serratia marcescens; [18]): 12.5 µg/mL; MIC against A. hydrophila (Aeromonas hydrophila; [19]): 100 µg/mL; MIC against E. coli BL21 (E. coli BL21; [20]): 25 µg/mL

With “PRT536 (CECHPTGATGPHCSPEGGQCPCQPNVIGRQCTRCATGHYGFPRCKP; listed as Homo sapiens)” as the substance, how does the “MIC against P. mirabilis” value (Proteus mirabilis; 96-well plate, 37° C., 10 h) read?
The value was 12.5 µg/mL.

What about the “MIC against P. aeruginosa” value (Pseudomonas aeruginosa; 96-well plate, 37° C., 10 h) of the same substance?
Its value is 12.5 µg/mL.

What about the “MIC against K. pneumonia” value (Klebsiella pneumonia; 96-well plate, 37° C., 10 h) of the same substance?
Its value is 50 µg/mL.

What about the “MIC against P. vulgaris” value (Proteus vulgaris; 96-well plate, 37° C., 10 h) of the same substance?
The value was 50 µg/mL.

And the “MIC against C. diversus” value (Citrobacter diversus; 96-well plate, 37° C., 10 h)?
Its value is 12.5 µg/mL.

And the “MIC against M. catarrhalis” value (Moraxella catarrhalis; 96-well plate, 37° C., 10 h)?
The value was 50 µg/mL.

And the “MIC against E. cloacae” value (Enterobacter cloacae; 96-well plate, 37° C., 10 h)?
The value was 12.5 µg/mL.

What about the MIC (E. coli DH5α) of the same substance?
Its MIC is 12.5 µg/mL.

And the “MIC against S. marcescens” value (Serratia marcescens; 96-well plate, 37° C., 10 h)?
Its value is 12.5 µg/mL.

And the “MIC against A. hydrophila” value (Aeromonas hydrophila; 96-well plate, 37° C., 10 h)?
The value was 50 µg/mL.

What about the “MIC against E. coli BL21” value (E. coli BL21; 96-well plate, 37° C., 10 h) of the same substance?
The value was 50 µg/mL.

Which results are given for “PRT41 (CDRPCVNGGRCNPGTGQCVCPAGWVGEQC; listed as Homo sapiens)”?
MIC (μg/mL) P. mirabilis (Proteus mirabilis; [11]): 25 µg/mL; MIC (μg/mL) P. aeruginosa (Pseudomonas aeruginosa; [12]): 25 µg/mL; MIC (μg/mL) K. pneumonia (Klebsiella pneumonia; [13]): 12.5 µg/mL; MIC (μg/mL) P. vulgaris (Proteus vulgaris; [14]): 12.5 µg/mL; MIC (μg/mL) C. diversus (Citrobacter diversus; [15]): 25 µg/mL; MIC (μg/mL) M. catarrhalis (Moraxella catarrhalis; [16]): 12.5 µg/mL; MIC (μg/mL) E. cloacae (Enterobacter cloacae; [17]): 25 µg/mL; MIC (E. coli DH5α): 25 µg/mL; MIC (μg/mL) S. marcescens (Serratia marcescens; [18]): 50 µg/mL; MIC (μg/mL) A. hydrophila (Aeromonas hydrophila; [19]): 12.5 µg/mL; MIC (μg/mL) E. coli BL21 (E. coli BL21; [20]): 12.5 µg/mL
